The target of this assay is recombinant full-length human hydroxyacid oxidase 1 (HAO1), the equivalents of hGOX (Homo sapiens (Human), UniProt Q9UJM8). Briefly: In-vitro human glycolate oxidase (hGOX) assay (Amplex red fluorescence). It counts as biochemical. The note with it: 6 nM recombinant human GO, 85 μM glycolate, 10 min preincubation. The protocol: The in-vitro glycolate oxidase assay was performed using recombinant full-length human hydroxyacid oxidase 1 (HAO1), the equivalents of hGOX. […] Purified HAO1 was dissolved in assay buffer consisting of 10 mM NaCl, 110 mM KCl, 2 mM MgCl2, 50 mM HEPES (pH 7.4), and 0.01% Triton™ X-100.
The plates were incubated for 10 min at room temperature, at which point Amplex red reagent (50 μM) was added.
The fluorescence intensity signal was measured on a VariosKan LUX instrument using an excitation of 560 nm and an emission of 590 nm. The IC50 values were calculated using Graphpad Prism. The fluorescence signal of wells containing only DMSO was defined as 100% GO activity, while the fluorescence signal without the glycolate substrate was defined as 0% GO activity.

Each structure is given as a SMILES string. pIC50: −log10 of the molar value.

Usually pIC50 stands for the IC50 on a negative log10 scale, so that one unit is a factor of ten.

Sequence of recombinant full-length human hydroxyacid oxidase 1 (HAO1), the equivalents of hGOX (Q9UJM8 whole entry): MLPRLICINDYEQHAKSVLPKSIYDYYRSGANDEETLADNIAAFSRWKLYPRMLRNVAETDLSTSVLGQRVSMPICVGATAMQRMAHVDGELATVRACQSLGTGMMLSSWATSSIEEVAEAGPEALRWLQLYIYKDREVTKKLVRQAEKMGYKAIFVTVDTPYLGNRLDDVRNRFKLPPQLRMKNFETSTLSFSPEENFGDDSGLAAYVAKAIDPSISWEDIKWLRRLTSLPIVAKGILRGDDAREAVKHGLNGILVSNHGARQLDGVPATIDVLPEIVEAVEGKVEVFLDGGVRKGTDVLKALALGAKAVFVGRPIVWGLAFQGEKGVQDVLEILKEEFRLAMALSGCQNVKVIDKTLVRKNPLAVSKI

On to `O=C(O)c1nn[nH]c1Oc1cccc(C#CC2CCCCC2)c1` [Example 37, 5-(3-(2-Cyclohexylethynyl)phenoxy)-1H-1,2,3-triazole-4-carboxylic Acid], for which the pIC50 was 8.10.
The value for `O=C(O)c1nn[nH]c1Oc1ccc(C#Cc2ccc3cn[nH]c3c2)cc1` [Example 329, 5-(4-(2-(1H-Indazol-6-yl)ethynyl)phenoxy)-1H-1,2,3-triazole-4-carboxylic Acid] was 8.70.
As for `Cc1cccc(C#Cc2cccc(Oc3[nH]nnc3C(=O)O)c2)n1` [Example 294, 5-(3-(2-(6-Methylpyridin-2-yl)ethynyl)phenoxy)-1H-1,2,3-triazole-4-carboxylic Acid], the pIC50 was 8.52.
On to `O=C(O)c1nn[nH]c1Oc1ccc(C#Cc2cccc3[nH]ncc23)cc1` [Example 327, 5-(4-(2-(1H-Indazol-4-yl)ethynyl)phenoxy)-1H-1,2,3-triazole-4-carboxylic Acid], for which the pIC50 was 8.70.
For the compound `N#CCCC#Cc1cccc(Oc2[nH]nnc2C(=O)O)c1` [Example 350, 5-(3-(4-Cyanobut-1-ynyl)phenoxy)-1H-1,2,3-triazole-4-carboxylic Acid], the pIC50 is 8.00.
With `O=C(O)c1nn[nH]c1Oc1cccc(C#Cc2ccc3cn[nH]c3c2)c1` [Example 330, 5-(3-(2-(1H-Indazol-6-yl)ethynyl)phenoxy)-1H-1,2,3-triazole-4-carboxylic Acid], the pIC50 was 9.00.
For `O=C(O)c1nn[nH]c1Oc1ccc(C#CCc2ccc(F)cc2)cc1` [Example 353, 5-(4-(3-(4-fluorophenyl)prop-1-ynyl)phenoxy)-1H-1,2,3-triazole-4-carboxylic Acid] the value was 8.52.
Consider `Cc1[nH]nc(Oc2cccc(C#CCC3CC3)c2)c1C(=O)O` [Example 359, 3-(3-(3-Cyclopropylprop-1-ynyl)phenoxy)-5-methyl-1H-pyrazole-4-carboxylic Acid], for which the pIC50 was less than 6.00.
As to `C#Cc1ccc(Oc2[nH]nnc2C(=O)O)cc1` [Example 2, 5-(4-Ethynylphenoxy)-1H-1,2,3-triazole-4-carboxylic Acid], the pIC50 was 7.05.
For the compound `CC(C)CC#Cc1cccc([S+]([O-])c2[nH]nnc2C(=O)O)c1` (stereo not drawn) [Example 374, 5-(3-(4-Methylpent-1-ynyl)phenylsulfinyl)-1H-1,2,3-triazole-4-carboxylic Acid], the pIC50 was less than 6.00.
As to `CS(=O)(=O)c1cccc(C#Cc2cc(Oc3[nH]nnc3C(=O)O)ccc2F)c1` [Example 267, 5-(4-Fluoro-3-(2-(3-(methylsulfonyl)phenyl)ethynyl)phenoxy)-1H-1,2,3-triazole-4-carboxylic Acid], the pIC50 is 8.70.
Consider `Cn1ncc2ccc(C#Cc3cccc(Oc4[nH]nnc4C(=O)O)c3)cc21` [Example 319, 5-(3-(2-(1-Methyl-1H-indazol-6-yl)ethynyl)phenoxy)-1H-1,2,3-triazole-4-carboxylic Acid], for which the pIC50 is 8.70.
For `CS(=O)(=O)c1ccc(C#Cc2cc(Oc3[nH]nnc3C(=O)O)ccc2F)cc1` [Example 266, 5-(4-Fluoro-3-(2-(4-(methylsulfonyl)phenyl)ethynyl)phenoxy)-1H-1,2,3-triazole-4-carboxylic Acid], the pIC50 is 8.70.
With `Cn1ncc2cc(C#Cc3cccc(Oc4[nH]nnc4C(=O)O)c3)ccc21` [Example 317, 5-(3-(2-(1-Methyl-1H-indazol-5-yl)ethynyl)phenoxy)-1H-1,2,3-triazole-4-carboxylic Acid], the negative-log IC50 (pIC50) is 8.70.
For `Cn1ccc(C#Cc2ccc(Oc3[nH]nnc3C(=O)O)cc2)cc1=O` [Example 256, 4-(4-((1-Methyl-2-oxo-1,2-dihydropyridin-4-yl)ethynyl)phenoxy)-1H-1,2,3-triazole-5-carboxylic Acid] the value was 8.70.
With `O=C(O)c1nn[nH]c1Oc1ccc(C#Cc2cccnn2)cc1` [Example 339, 5-(4-(2-(Pyridazin-3-yl)ethynyl)phenoxy)-1H-1,2,3-triazole-4-carboxylic Acid], the pIC50 was 8.40.
In the case of `Cn1ncc2cccc(C#Cc3ccc(Oc4[nH]nnc4C(=O)O)cc3)c21` [Example 325, 5-(4-(2-(1-Methyl-1H-indazol-7-yl)ethynyl)phenoxy)-1H-1,2,3-triazole-4-carboxylic Acid], the pIC50 is 8.70.
With `O=C(O)c1nn[nH]c1Oc1ccc(C#Cc2cccc(F)c2)cc1` [Example 278, 5-(4-(2-(3-Fluorophenyl)ethynyl)phenoxy)-1H-1,2,3-triazole-4-carboxylic Acid], the pIC50 was 9.00.
The value for `O=C(O)c1nn[nH]c1Oc1ccc(C#Cc2ncc[nH]2)cc1` [Example 331, 5-(4-(2-(1H-Imidazol-2-yl)ethynyl)phenoxy)-1H-1,2,3-triazole-4-carboxylic Acid] was 7.70.
The value for `Cc1ccc(Oc2[nH]nnc2C(=O)O)cc1C#Cc1ccccc1` [Example 262, 5-(4-Methyl-3-(2-phenylethynyl)phenoxy)-1H-1,2,3-triazole-4-carboxylic Acid] was 9.00; that for `O=C(O)c1nn[nH]c1Oc1cccc(C#Cc2ccc(F)cc2)c1` [Example 289, 5-(3-(2-(4-Fluorophenyl)ethynyl)phenoxy)-1H-1,2,3-triazole-4-carboxylic Acid] was 9.00.
Regarding `Cn1ncc2cccc(C#Cc3cccc(Oc4[nH]nnc4C(=O)O)c3)c21` [Example 326, 5-(3-(2-(1-Methyl-1H-indazol-7-yl)ethynyl)phenoxy)-1H-1,2,3-triazole-4-carboxylic Acid], the pIC50 is 8.70.
Turning to `CCOC(=O)c1nn[nH]c1[S+]([O-])c1cccc(C#CCC(C)C)c1` (stereo not drawn) [Example 373, Ethyl 5-(3-(4-methylpent-1-ynyl)phenylsulfinyl)-1H-1,2,3-triazole-4-carboxylate], the pIC50 was less than 6.00.
As to `O=C(O)c1nn[nH]c1Oc1ccc(C#Cc2ncccn2)cc1` [Example 336, 5-(4-(2-(Pyrimidin-2-yl)ethynyl)phenoxy)-1H-1,2,3-triazole-4-carboxylic Acid], the pIC50 is 7.60.
The value for `CCOC(=O)c1c(Oc2cccc(C#CCC3CC3)c2)n[nH]c1C` [Example 358, Ethyl 3-(3-(3-cyclopropylprop-1-ynyl)phenoxy)-5-methyl-1H-pyrazole-4-carboxylate] was less than 6.00.
Regarding `O=C(O)c1nonc1Oc1cccc(C#CCC2CC2)c1` [Example 370, 4-(3-(3-Cyclopropylprop-1-ynyl)phenoxy)-1,2,5-oxadiazole-3-carboxylic Acid], the pIC50 was less than 6.00.
Turning to `O=C(O)c1nn[nH]c1Oc1cc(C#Cc2ccccc2)ccc1F` [Example 261, 5-(2-Fluoro-5-(2-phenylethynyl)phenoxy)-1H-1,2,3-triazole-4-carboxylic Acid], the pIC50 is 8.40.
With `O=C(O)c1nn[nH]c1Cc1cccc(C#CCC2CC2)c1` [Example 365, 5-(3-(3-Cyclopropylprop-1-ynyl)benzyl)-1H-1,2,3-triazole-4-carboxylic Acid], the pIC50 is 7.01.
The value for `O=C(O)c1nn[nH]c1Oc1cc(F)cc(C#Cc2ccccc2)c1` [Example 258, 5-(3-Fluoro-5-(2-phenylethynyl)phenoxy)-1H-1,2,3-triazole-4-carboxylic Acid] was 8.70; that for `Cn1ncc2ccc(C#Cc3ccc(Oc4[nH]nnc4C(=O)O)cc3)cc21` [Example 318, 5-(4-(2-(1-Methyl-1H-indazol-6-yl)ethynyl)phenoxy)-1H-1,2,3-triazole-4-carboxylic Acid] was 8.70.
Turning to `O=C(O)c1nn[nH]c1Oc1ccc(C#Cc2cccnc2)cc1` [Example 309, 5-(4-(2-(Pyridin-3-yl)ethynyl)phenoxy)-1H-1,2,3-triazole-4-carboxylic Acid], the pIC50 was 8.52.
With `O=C(O)c1nn[nH]c1Oc1ccc(C#Cc2cnccn2)cc1` [Example 337, 5-(4-(2-(Pyrazin-2-yl)ethynyl)phenoxy)-1H-1,2,3-triazole-4-carboxylic Acid], the pIC50 is 8.15.
Turning to `Cc1cc(C#Cc2ccc(Oc3[nH]nnc3C(=O)O)cc2)ccn1` [Example 298, 5-(4-(2-(2-Methylpyridin-4-yl)ethynyl)phenoxy)-1H-1,2,3-triazole-4-carboxylic Acid], the pIC50 is 8.52.
On to `O=C1CCC(C#Cc2cccc(Oc3[nH]nnc3C(=O)O)c2)CC1` [Example 352, 5-(3-((4-Oxocyclohexyl)ethynyl)phenoxy)-1H-1,2,3-triazole-4-carboxylic Acid], for which the pIC50 is 7.47.
Turning to `CS(=O)(=O)c1cccc(C#Cc2cc(F)cc(Oc3[nH]nnc3C(=O)O)c2)c1` [Example 275, 5-(3-Fluoro-5-(2-(3-(methylsulfonyl)phenyl)ethynyl)phenoxy)-1H-1,2,3-triazole-4-carboxylic Acid], the pIC50 is 8.52.
For `Cn1ncc2cc(C#Cc3ccc(Oc4[nH]nnc4C(=O)O)cc3)ccc21` [Example 316, 5-(4-(2-(1-Methyl-1H-indazol-5-yl)ethynyl)phenoxy)-1H-1,2,3-triazole-4-carboxylic Acid], the pIC50 was 8.70.
With `O=C(O)c1nn[nH]c1Oc1cccc(C#Cc2cccc(Cl)c2)c1` [Example 187, 5-(3-(2-(3-Chlorophenyl)ethynyl)phenoxy)-1H-1,2,3-triazole-4-carboxylic Acid], the pIC50 was 9.00.
For the compound `CCOC(=O)c1nn[nH]c1Oc1cccc(C#CCC2CC2)c1` [Example 357, Ethyl 5-(3-(3-cyclopropylprop-1-ynyl)phenoxy)-1H-1,2,3-triazole-4-carboxylate], the negative logarithm of the IC50 (pIC50) was less than 6.00.
As for `O=C(O)c1ccc(C#Cc2cc(F)cc(Oc3[nH]nnc3C(=O)O)c2)cc1` [Example 265, 5-(3-Fluoro-5-(2-(4-carboxyphenyl)ethynyl)phenoxy)-1H-1,2,3-triazole-4-carboxylic Acid], the pIC50 is 8.52.
